Test results from ChEMBL document CHEMBL4190323, “New racemic annulated pyrazolo[1,2-b]phthalazines as tacrine-like AChE inhibitors with potential use in Alzheimer's disease” (Eur J Med Chem, 2017).
Activity calls are given as the source filed them. No cut-off for these calls is given here.

Assays:
Acetylcholinesterase [1] = target: T1, Acetylcholinesterase (Electrophorus electricus, UniProt O42275); assay: Inhibition of electric eel AChE using acetylthiocholine iodide as substrate preincubated for 10 mins followed by substrate addition measured for 6 mins by Ellman's method
Cholinesterase = Cholinesterase (Equus caballus, UniProt P81908); assay: Inhibition of equine serum BuChE using butyrylthiocholine iodide as substrate preincubated for 10 mins followed by substrate addition measured for 6 mins by Ellman's method
PC-12 [2] = assay: Neuroprotective activity in rat PC12 cells assessed as decrease in H2O2 mediated apoptosis at 10 uM preincubated for 3 hrs followed by H2O2 challenge measured after 24 hrs by MTT assay; assay type: functional, cell-based
in vitro [3] = conditions: human, HepG2 cells
Description: Cytotoxicity against human HepG2 cells assessed as cell viability at 1 uM after 24 hrs by MTT assay relative to control

in vitro [4] = conditions: human, HepG2 cells; remark: listed apart in the source
Description: Cytotoxicity against human HepG2 cells assessed as cell viability at 5 uM after 24 hrs by MTT assay relative to control

in vitro [5] = conditions: human, HepG2 cells; remark: listed apart in the source
Description: Cytotoxicity against human HepG2 cells assessed as cell viability at 10 uM after 24 hrs by MTT assay relative to control

in vitro [6] = conditions: human, HepG2 cells; remark: listed apart in the source
Description: Cytotoxicity against human HepG2 cells assessed as cell viability at 25 uM after 24 hrs by MTT assay relative to control

in vitro [7] = conditions: human, HepG2 cells; remark: listed apart in the source
Description: Cytotoxicity against human HepG2 cells assessed as cell viability at 50 uM after 24 hrs by MTT assay relative to control

in vitro [8] = conditions: human, HepG2 cells; remark: listed apart in the source
Description: Cytotoxicity against human HepG2 cells assessed as cell viability at 100 uM after 24 hrs by MTT assay relative to control

in vitro [9] = conditions: human, HepG2 cells; remark: listed apart in the source
Description: Cytotoxicity against human HepG2 cells assessed as cell viability at 300 uM after 24 hrs by MTT assay relative to control

Acetylcholinesterase [10] = target: T1, Acetylcholinesterase; assay: Mixed-type inhibition of electric eel AChE using acetylthiocholine iodide as substrate preincubated for 10 mins followed by substrate addition measured for 6 mins by Lineweaver-Burk plot analysis
PC-12 [11] = assay: Neuroprotective activity in rat PC12 cells assessed as decrease in H2O2-mediated apoptosis at 100 uM preincubated for 3 hrs followed by H2O2 challenge measured after 24 hrs by MTT assay; assay type: functional, cell-based
PC-12 [12] = assay: Neuroprotective activity in rat PC12 cells assessed as decrease in H2O2 mediated apoptosis at 1 uM preincubated for 3 hrs followed by H2O2 challenge measured after 24 hrs by MTT assay; assay type: functional, cell-based
PC-12 [13] = assay: Neurotoxicity in rat PC12 cells assessed as reduction in cell viability at 1 to 10 uM after 24 hrs by MTT assay; assay type: toxicity, cell-based; conditions: pc-12, 24 h
[14] = target: Acetylcholinesterase (Electrophorus electricus) (UniProt O42275); assay: Potency index, ratio of IC50 for tacrine to IC50 for test compound for electric eel AChE
Chain of Acetylcholinesterase (Electrophorus electricus) (O42275 24-633 limits assumed): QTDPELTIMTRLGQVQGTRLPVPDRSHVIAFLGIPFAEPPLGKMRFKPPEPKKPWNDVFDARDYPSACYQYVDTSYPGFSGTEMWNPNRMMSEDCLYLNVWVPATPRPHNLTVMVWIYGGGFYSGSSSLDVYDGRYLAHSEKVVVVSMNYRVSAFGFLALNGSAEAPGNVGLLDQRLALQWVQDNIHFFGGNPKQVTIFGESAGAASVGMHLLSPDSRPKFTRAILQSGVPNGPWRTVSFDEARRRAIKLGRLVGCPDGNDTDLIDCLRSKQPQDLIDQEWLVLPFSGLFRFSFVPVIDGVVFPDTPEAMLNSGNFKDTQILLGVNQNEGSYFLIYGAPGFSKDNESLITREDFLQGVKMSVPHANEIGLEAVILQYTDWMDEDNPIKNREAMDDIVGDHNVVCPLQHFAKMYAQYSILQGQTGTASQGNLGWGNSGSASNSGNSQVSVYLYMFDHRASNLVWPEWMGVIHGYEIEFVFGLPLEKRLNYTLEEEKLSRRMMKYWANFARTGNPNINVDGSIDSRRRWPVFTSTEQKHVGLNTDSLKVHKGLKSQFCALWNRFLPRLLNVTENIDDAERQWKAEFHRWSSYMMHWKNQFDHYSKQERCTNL

Chain of Cholinesterase (P81908 whole entry): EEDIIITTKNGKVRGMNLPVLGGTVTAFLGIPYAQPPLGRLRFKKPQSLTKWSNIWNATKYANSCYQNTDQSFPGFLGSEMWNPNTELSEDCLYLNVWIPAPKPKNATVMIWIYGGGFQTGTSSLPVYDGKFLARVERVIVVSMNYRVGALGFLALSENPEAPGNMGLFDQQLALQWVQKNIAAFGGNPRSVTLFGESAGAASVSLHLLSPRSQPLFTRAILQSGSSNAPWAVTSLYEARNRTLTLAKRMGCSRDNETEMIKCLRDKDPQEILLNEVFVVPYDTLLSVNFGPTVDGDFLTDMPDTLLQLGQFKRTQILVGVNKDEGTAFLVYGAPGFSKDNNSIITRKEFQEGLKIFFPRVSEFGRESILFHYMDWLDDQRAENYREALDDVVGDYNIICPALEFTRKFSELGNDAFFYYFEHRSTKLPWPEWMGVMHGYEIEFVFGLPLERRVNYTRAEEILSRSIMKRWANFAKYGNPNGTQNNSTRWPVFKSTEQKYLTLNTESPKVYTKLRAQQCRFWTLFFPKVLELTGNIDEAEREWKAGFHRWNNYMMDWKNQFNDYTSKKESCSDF
T1 sequence (O42275 whole entry): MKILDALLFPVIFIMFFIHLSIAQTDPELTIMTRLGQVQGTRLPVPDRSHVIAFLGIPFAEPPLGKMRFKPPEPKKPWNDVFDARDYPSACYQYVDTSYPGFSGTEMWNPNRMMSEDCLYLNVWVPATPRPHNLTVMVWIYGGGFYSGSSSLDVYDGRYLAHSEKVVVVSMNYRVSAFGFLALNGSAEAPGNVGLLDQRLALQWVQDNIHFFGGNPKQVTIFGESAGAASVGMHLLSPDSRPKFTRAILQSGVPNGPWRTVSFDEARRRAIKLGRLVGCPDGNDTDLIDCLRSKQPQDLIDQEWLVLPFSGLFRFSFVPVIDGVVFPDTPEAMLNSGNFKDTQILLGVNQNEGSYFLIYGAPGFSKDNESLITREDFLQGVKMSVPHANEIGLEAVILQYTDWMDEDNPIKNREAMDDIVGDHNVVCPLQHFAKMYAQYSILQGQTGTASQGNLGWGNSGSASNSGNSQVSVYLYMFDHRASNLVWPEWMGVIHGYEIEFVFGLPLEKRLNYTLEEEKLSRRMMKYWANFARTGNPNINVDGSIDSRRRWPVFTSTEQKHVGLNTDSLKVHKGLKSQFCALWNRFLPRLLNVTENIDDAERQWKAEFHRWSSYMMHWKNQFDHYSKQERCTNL

| SMILES | IC50 (Acetylcholinesterase [1]) [nM] | IC50 (Cholinesterase) [nM] | also measured |
| --- | --- | --- | --- |
| Nc1c2c(nc3c1C(c1ccc([N+](=O)[O-])cc1)n1c(=O)c4ccccc4c(=O)n1-3)CCCC2 (centres undefined) | 310 | > 100000 | – |
| Nc1c2c(nc3c1C(c1ccccc1[N+](=O)[O-])n1c(=O)c4ccccc4c(=O)n1-3)CCCC2 (centres undefined) | 280 | > 100000 | – |
| O=c1c(O)c(-c2ccc(O)c(O)c2)oc2cc(O)cc(O)c12 | – | – | Activity (PC-12 [2]): Active |
| Nc1c2c(nc3c1C(c1cccc(Br)c1)n1c(=O)c4ccccc4c(=O)n1-3)CCCC2 (centres undefined) | 271 | > 100000 | – |
| CCCCCC1c2c(nc3c(c2N)CCCC3)-n2c(=O)c3ccccc3c(=O)n21 (centres undefined) | 612 | > 100000 | – |
| Cc1ccc(C2c3c(nc4c(c3N)CCCC4)-n3c(=O)c4ccccc4c(=O)n32)cc1 (centres undefined) | 100 | > 100000 | – |
| Nc1c2c(nc3c1C(c1ccccc1)n1c(=O)c4ccccc4c(=O)n1-3)CCCC2 (centres undefined) | 614 | > 100000 | – |
| Nc1c2c(nc3c1C(c1ccc(F)cc1)n1c(=O)c4ccccc4c(=O)n1-3)CCCC2 (centres undefined) | 69 | > 100000 | viability at 24 h, 1 µM (in vitro [3]): 91.2%; viability at 24 h, 5 µM (in vitro [4]): 87.5%; viability at 24 h, 10 µM (in vitro [5]): 83.3%; viability at 24 h, 25 µM (in vitro [6]): 80%; viability at 24 h, 50 µM (in vitro [7]): 75.9%; viability at 24 h, 100 µM (in vitro [8]): 71.4%; viability at 24 h, 300 µM (in vitro [9]): 66.4% |
| Nc1c2c(nc3c1C(c1ccccc1F)n1c(=O)c4ccccc4c(=O)n1-3)CCCC2 (centres undefined) | 618 | > 100000 | – |
| COc1ccccc1C1c2c(nc3c(c2N)CCCC3)-n2c(=O)c3ccccc3c(=O)n21 (centres undefined) | 49 | 93300 | Ki (Acetylcholinesterase [10]): 12.6 nM; Activity (PC-12 [11]): Active; Activity (PC-12 [2]): inactive; Activity (PC-12 [12]): inactive; Activity (PC-12 [13]): Non-Toxic; viability at 24 h, 1 µM (in vitro [3]): 96.3%; viability at 24 h, 5 µM (in vitro [4]): 95%; viability at 24 h, 10 µM (in vitro [5]): 95.2%; viability at 24 h, 25 µM (in vitro [6]): 90.2%; viability at 24 h, 50 µM (in vitro [7]): 87.3%; viability at 24 h, 100 µM (in vitro [8]): 86.4%; viability at 24 h, 300 µM (in vitro [9]): 83% |
| Nc1c2c(nc3c1C(c1ccccc1Cl)n1c(=O)c4ccccc4c(=O)n1-3)CCCC2 (centres undefined) | 592 | > 100000 | – |
| CCCC1c2c(nc3c(c2N)CCCC3)-n2c(=O)c3ccccc3c(=O)n21 (centres undefined) | 1630 | > 100000 | – |
| COc1cc(OC)cc(C2c3c(nc4c(c3N)CCCC4)-n3c(=O)c4ccccc4c(=O)n32)c1 (centres undefined) | 3370 | > 100000 | – |
| Cc1cccc(C2c3c(nc4c(c3N)CCCC4)-n3c(=O)c4ccccc4c(=O)n32)c1 (centres undefined) | 467 | > 100000 | – |
| CC1c2c(nc3c(c2N)CCCC3)-n2c(=O)c3ccccc3c(=O)n21 (centres undefined) | 2150 | > 100000 | – |
| Nc1c2c(nc3c1C(c1ccccc1Br)n1c(=O)c4ccccc4c(=O)n1-3)CCCC2 (centres undefined) | 599 | > 100000 | – |
| Nc1c2c(nc3c1C(c1ccc(Br)cc1)n1c(=O)c4ccccc4c(=O)n1-3)CCCC2 (centres undefined) | 80 | > 100000 | viability at 24 h, 1 µM (in vitro [3]): 99.8%; viability at 24 h, 5 µM (in vitro [4]): 98.3%; viability at 24 h, 10 µM (in vitro [5]): 97.6%; viability at 24 h, 25 µM (in vitro [6]): 96.4%; viability at 24 h, 50 µM (in vitro [7]): 95.7%; viability at 24 h, 100 µM (in vitro [8]): 92.8%; viability at 24 h, 300 µM (in vitro [9]): 90% |
| Nc1c2c(nc3c1C(c1cccc(F)c1)n1c(=O)c4ccccc4c(=O)n1-3)CCCC2 (centres undefined) | 23 | 37200 | Ratio IC50 [14]: 15; viability at 24 h, 1 µM (in vitro [3]): 93.5%; viability at 24 h, 5 µM (in vitro [4]): 90.9%; viability at 24 h, 10 µM (in vitro [5]): 86.1%; viability at 24 h, 25 µM (in vitro [6]): 82.7%; viability at 24 h, 50 µM (in vitro [7]): 78.8%; viability at 24 h, 100 µM (in vitro [8]): 74.8%; viability at 24 h, 300 µM (in vitro [9]): 68.2% |
| Nc1c2c(nc3c1C(c1cccc(O)c1)n1c(=O)c4ccccc4c(=O)n1-3)CCCC2 (centres undefined) | 160 | > 100000 | – |
| Nc1c2c(nc3c1C(c1ccc(Cl)cc1)n1c(=O)c4ccccc4c(=O)n1-3)CCCC2 (centres undefined) | 60 | 96200 | viability at 24 h, 1 µM (in vitro [3]): 98.6%; viability at 24 h, 5 µM (in vitro [4]): 96.2%; viability at 24 h, 10 µM (in vitro [5]): 95.1%; viability at 24 h, 25 µM (in vitro [6]): 94.4%; viability at 24 h, 50 µM (in vitro [7]): 92.4%; viability at 24 h, 100 µM (in vitro [8]): 91.3%; viability at 24 h, 300 µM (in vitro [9]): 89.3% |
| Cc1ccccc1C1c2c(nc3c(c2N)CCCC3)-n2c(=O)c3ccccc3c(=O)n21 (centres undefined) | 193 | > 100000 | – |
| Nc1c2c(nc3c1C(c1cccc([N+](=O)[O-])c1)n1c(=O)c4ccccc4c(=O)n1-3)CCCC2 (centres undefined) | 140 | > 100000 | – |
